Test results reported in patent publication US9150544B2 (priority 2011, dated 2015).

Target: human factor IXa (Homo sapiens (Human), UniProt P00740)
Experiment: biochemical
Conditions: read-out: Imax IXa (percentage inhibition at the maximum concentration tested)

human factor IXa, sequence (P00740 whole entry, looked up): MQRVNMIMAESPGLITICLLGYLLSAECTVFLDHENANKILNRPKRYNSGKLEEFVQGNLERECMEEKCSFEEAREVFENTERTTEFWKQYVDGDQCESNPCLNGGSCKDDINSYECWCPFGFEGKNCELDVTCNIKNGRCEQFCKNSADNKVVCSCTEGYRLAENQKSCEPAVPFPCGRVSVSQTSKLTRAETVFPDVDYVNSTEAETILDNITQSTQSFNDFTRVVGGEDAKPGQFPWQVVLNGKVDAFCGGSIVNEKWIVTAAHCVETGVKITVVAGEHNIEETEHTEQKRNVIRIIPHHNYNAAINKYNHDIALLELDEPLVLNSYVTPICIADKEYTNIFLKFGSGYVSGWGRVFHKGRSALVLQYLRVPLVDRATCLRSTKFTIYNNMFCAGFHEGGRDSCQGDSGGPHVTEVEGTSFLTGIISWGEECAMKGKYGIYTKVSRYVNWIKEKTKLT
human factor IXa, sequence (P00740 whole entry partner, looked up): as the sequence (P00740 whole entry, looked up) above

SMILES: COC(=O)[C@@H](Cc1cc2ccnc(N)c2cc1C(F)(F)F)N1CC[C@H](NS(=O)(=O)c2cnc(N3CCC(F)(F)C3)s2)C1=O [Compound 90, (R)-3-(1-Amino-7-trifluoromethyl-isoquinolin-6-yl)-2-{(S)-3-[2-(3,3-difluoro-pyrrolidin-1-yl)-thiazole-5-sulfonylamino]-2-oxo-pyrrolidin-1-yl}-propionic acid methyl ester]
- inhibition at 5 µM: 41%
